Experimental data as given in patent publication US20250084039A1, “4-SUBSTITUTED AMINOISOQUINOLINE DERIVATIVES” (Purdue Research Foundation, priority 2016, published 2025).
Like-named read-outs stand apart in the source and are kept apart here.

Assays:
FGFR1 = FGFR1 (Homo sapiens (Human), UniProt P11362); assay: Reaction Biology HotSpot kinase assay; assay type: biochemical; details: 500 nM compound; read-out: Percentage kinase inhibition FGFR1
Protocol: (§1) The Reaction Biology Corporation (www.reactionbiology.com, Malvern, PA) HotSpot assay platform was used to measure kinase/inhibitor interactions exactly as previously described. Kinase and substrate were mixed in a buffer containing 20 mM HEPES pH 7.5, 10 mM MgCl2, 1 mM EGTA, 0.02% Brij35, 0.02 mg/mL BSA, 0.1 mM Na3VO4, 2 mM DTT and 1% DMSO. Single-dose of compounds (500 nM) were then added to each reaction mixture. After 20-minute incubation. ATP (Sigma) and [γ-^33P] ATP (Perkin Elmer) were added at a final total concentration of 100 μM for addition 2 hours at room temperature, followed by spotting onto P81 ion exchange cellulose chromatography paper (Whatman, Inc.). […] Percent remaining kinase activity of a vehicle (DMSO) containing kinase reaction was calculated for each kinase/inhibitor pair using Prism 5 (GraphPad).
as §1, with “1” for “DTT”, “incubation,” for “incubation.”

FLT3 = FLT3 (Homo sapiens (Human), UniProt P36888); assay: Reaction Biology HotSpot kinase assay; assay type: biochemical; details: 500 nM compound; read-out: % inhibition of FLT3 activity
Protocol: as §1
as §1, with “1” for “DTT”, “incubation,” for “incubation.”

RET = RET (Homo sapiens (Human), UniProt P07949); assay: Reaction Biology HotSpot kinase assay; assay type: biochemical; details: 500 nM compound; read-out: Percentage kinase inhibition RET
Protocol: as §1
as §1, with “1” for “DTT”, “incubation,” for “incubation.”

TRKC = TRKC (Homo sapiens (Human), UniProt Q16288); assay: Reaction Biology HotSpot kinase assay; assay type: biochemical; details: 500 nM compound, 100 μM radiolabeled ATP
Protocol: as §1
as §1, with “1” for “DTT”, “incubation,” for “incubation.”

c-Src = c-Src (Homo sapiens (Human), UniProt P12931); assay: Reaction Biology HotSpot kinase assay; assay type: biochemical; details: 500 nM compound; read-out: Percentage kinase inhibition c-Src
Protocol: as §1
as §1, with “1” for “DTT”, “incubation,” for “incubation.”

c-kit = c-kit (Homo sapiens (Human), UniProt P10721); assay: Reaction Biology HotSpot kinase assay; assay type: biochemical; details: 500 nM compound, 100 μM radiolabeled ATP
Protocol: as §1
as §1, with “1” for “DTT”, “incubation,” for “incubation.”

K562 = assay: IC50 proliferation assay (Alamar Blue, 72 h); assay type: cell-based; details: Homo sapiens
Protocol: (§2) IC50 proliferation assay—Cell lines and primary cells were seeded into 96-well plates the afternoon prior to treatment. Approximately 18 hours later, compounds were semi-serially diluted in dimethyl sulfoxide (DMSO) and then growth medium, and added to cells. Plates were incubated for 72 hours prior to addition of Alamar Blue (Life Technologies, Carlsbad, CA). Plates were read after 4 additional hours of incubation at 37° C. using a Bio-Tek Synergy HT plate reader (Bio-Tek, Winooski, VT). Data was analyzed and graphed using GraphPad Prism Software (Graphpad, La Jolla. CA).
(§3) IC50 (proliferation inhibition) against leukemia cell lines MV4-11 and K562. […] MiaPaca-2 (Pancreatic cell line), HLY-1 (Lymphoma cell line), MV4-11 (AML, cell line) and K562 (CML cell line).

MV4-11 [1] = assay: IC50 proliferation assay (Alamar Blue, 72 h); assay type: cell-based; details: Homo sapiens, MV4-11, 72 h; read-out: IC50 (proliferation inhibition) Cell line - MV4-11
Protocol: as §2, §3

MV-4-11 = assay: Proliferation inhibition at single concentration (CellTiter-Blue); assay type: cell-based; details: Homo sapiens, MV4-11; 1 μM compound; read-out: Percent inhibition of proliferation MV-4-11
HCT116 = assay: as above; assay type: cell-based; details: Homo sapiens, HCT-116; 1 μM compound; read-out: Percent inhibition of proliferation HCT116
HeLa = assay: as above; assay type: cell-based; details: Homo sapiens, HeLa; 1 μM compound; read-out: Percent inhibition of proliferation HeLa
MCF-7 = assay: as above; assay type: cell-based; details: Homo sapiens, MCF7; 1 μM compound; read-out: Percent inhibition of proliferation MCF-7
MOLM14 [2] = assay: IC50 determination (proliferation assay, CellTiter-Blue); assay type: cell-based; details: Homo sapiens, MOLM-14
Protocol: (§4) Cell lines were seeded into 96-well plates the afternoon prior to treatment. Approximately 18 hours later, compounds were diluted in dimethyl sulfoxide (DMSO) and added to cells. Plates were incubated for 72 hours and cells viability determined with CellTiter-Blue Cell Viability Assay (Promega, Madison, WI). Plates were read after 4 additional hours of incubation at 37° C. using plate reader (Bio-Tek, Winooski. VT). Data was analyzed and graphed using GraphPad Prism Software (Graphpad. La Jolla, CA). […]

MV4-11 [3] = assay: as above; assay type: cell-based; details: for IC50: Homo sapiens, MV4-11
Protocol: as §4

NCI H1703 (NSCLC) = assay: Activity against lung cancer cell line; assay type: cell-based; details: Homo sapiens, NCI-H1703
FLT3 (ITD) = FLT3 (ITD) (Homo sapiens, UniProt P36888, ITD); assay: DiscoverX Kd Elect binding; details: read-out: Kd FLT3 (ITD)
Excerpt: Although the current drugs on the market or in clinical trials are relatively successful in killing the AML leukemia cells, they currently are unable to deal with secondary mutations that occur after TKI treatment, such as FLT3 ([…]).

FLT3 (ITD, F691L) = FLT3 (ITD, F691L) (Homo sapiens, UniProt P36888, F691L/ITD); assay: DiscoverX Kd Elect binding; details: read-out: Kd FLT3 (ITD, F691L)
MV4-11 [4] = assay: Anti-proliferative effects in leukemia panel; assay type: cell-based; details: Homo sapiens, MV4-11; read-out: Anti-proliferative effects in leukemia panel (μM) MV4-11
Protocol: Molm-14 cells were the kind gift of Dr. Mark Levis from Johns Hopkins University. […] Cell lines were grown and maintained according to ATCC recommendations.
as §2, with “Cell” for “IC50 proliferation assay—Cell”, “lines” for “lines and primary cells”, “Technologies.” for “Technologies,”, “Winooski.” for “Winooski,”, “(Graphpad.” for “(Graphpad,”, “Jolla,” for “Jolla.”

K-562 = assay: Anti-proliferative effects in leukemia panel; assay type: cell-based; details: Homo sapiens, K562
Protocol: (§5) Molm-14 cells were the kind gift of Dr. Mark Levis from Johns Hopkins University. THP-1, MV4-11, K-562 and MRC-5A cells were purchased from ATCC (ATCC, Manassas, VA). All cell lines were grown in 37° C. with 5% CO2 atmosphere with RPMI 1640 (Life technologies, Carlsbad. CA) supplemented with heat-inactivated 10% (V/V) fetal bovine serum. Cell lines were grown and maintained according to ATCC recommendations.
as §2, with “Cell” for “IC50 proliferation assay—Cell”, “lines” for “lines and primary cells”, “Technologies.” for “Technologies,”, “Winooski.” for “Winooski,”, “(Graphpad.” for “(Graphpad,”, “Jolla,” for “Jolla.”

MOLM14 [5] = assay: Anti-proliferative effects in leukemia panel; assay type: cell-based; details: Homo sapiens, MOLM-14
Protocol: as §5
as §2, with “Cell” for “IC50 proliferation assay—Cell”, “lines” for “lines and primary cells”, “Technologies.” for “Technologies,”, “Winooski.” for “Winooski,”, “(Graphpad.” for “(Graphpad,”, “Jolla,” for “Jolla.”

THP-1 = assay: Anti-proliferative effects in leukemia panel; assay type: cell-based; details: Homo sapiens
Protocol: as §5
as §2, with “Cell” for “IC50 proliferation assay—Cell”, “lines” for “lines and primary cells”, “Technologies.” for “Technologies,”, “Winooski.” for “Winooski,”, “(Graphpad.” for “(Graphpad,”, “Jolla,” for “Jolla.”

[6] = K562, 72 h, read-out: IC50 (proliferation inhibition) Cell line - K562
[7] = K562, Table 18, read-out: Inhibition of proliferation of K562 cell lines (CML)

Sequence of c-kit (P10721 26-976): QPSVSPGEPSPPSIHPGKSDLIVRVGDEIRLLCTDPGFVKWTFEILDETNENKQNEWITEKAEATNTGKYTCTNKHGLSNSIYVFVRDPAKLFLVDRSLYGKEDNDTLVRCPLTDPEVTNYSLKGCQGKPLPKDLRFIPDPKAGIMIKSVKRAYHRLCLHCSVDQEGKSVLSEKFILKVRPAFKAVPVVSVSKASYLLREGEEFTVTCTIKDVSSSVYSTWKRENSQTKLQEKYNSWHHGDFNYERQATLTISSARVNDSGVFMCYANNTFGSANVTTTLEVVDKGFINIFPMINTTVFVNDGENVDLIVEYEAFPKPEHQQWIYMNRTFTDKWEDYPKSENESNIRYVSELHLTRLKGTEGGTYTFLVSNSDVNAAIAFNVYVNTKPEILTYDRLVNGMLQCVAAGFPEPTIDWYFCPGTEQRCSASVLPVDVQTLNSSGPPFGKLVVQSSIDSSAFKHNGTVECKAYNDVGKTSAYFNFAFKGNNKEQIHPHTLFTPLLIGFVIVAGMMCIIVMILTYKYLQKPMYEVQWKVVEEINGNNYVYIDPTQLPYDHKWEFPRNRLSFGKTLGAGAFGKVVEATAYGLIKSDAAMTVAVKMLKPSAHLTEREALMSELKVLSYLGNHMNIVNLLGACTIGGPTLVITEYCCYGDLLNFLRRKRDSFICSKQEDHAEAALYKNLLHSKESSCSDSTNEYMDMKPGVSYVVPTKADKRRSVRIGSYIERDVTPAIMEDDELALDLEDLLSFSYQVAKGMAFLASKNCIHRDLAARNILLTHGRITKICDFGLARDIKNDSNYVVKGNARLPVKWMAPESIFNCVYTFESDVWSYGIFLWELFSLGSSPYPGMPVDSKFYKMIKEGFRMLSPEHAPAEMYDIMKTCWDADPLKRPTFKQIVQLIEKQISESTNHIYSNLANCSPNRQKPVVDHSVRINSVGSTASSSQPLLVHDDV
Sequence of FGFR1 (P11362 22-822): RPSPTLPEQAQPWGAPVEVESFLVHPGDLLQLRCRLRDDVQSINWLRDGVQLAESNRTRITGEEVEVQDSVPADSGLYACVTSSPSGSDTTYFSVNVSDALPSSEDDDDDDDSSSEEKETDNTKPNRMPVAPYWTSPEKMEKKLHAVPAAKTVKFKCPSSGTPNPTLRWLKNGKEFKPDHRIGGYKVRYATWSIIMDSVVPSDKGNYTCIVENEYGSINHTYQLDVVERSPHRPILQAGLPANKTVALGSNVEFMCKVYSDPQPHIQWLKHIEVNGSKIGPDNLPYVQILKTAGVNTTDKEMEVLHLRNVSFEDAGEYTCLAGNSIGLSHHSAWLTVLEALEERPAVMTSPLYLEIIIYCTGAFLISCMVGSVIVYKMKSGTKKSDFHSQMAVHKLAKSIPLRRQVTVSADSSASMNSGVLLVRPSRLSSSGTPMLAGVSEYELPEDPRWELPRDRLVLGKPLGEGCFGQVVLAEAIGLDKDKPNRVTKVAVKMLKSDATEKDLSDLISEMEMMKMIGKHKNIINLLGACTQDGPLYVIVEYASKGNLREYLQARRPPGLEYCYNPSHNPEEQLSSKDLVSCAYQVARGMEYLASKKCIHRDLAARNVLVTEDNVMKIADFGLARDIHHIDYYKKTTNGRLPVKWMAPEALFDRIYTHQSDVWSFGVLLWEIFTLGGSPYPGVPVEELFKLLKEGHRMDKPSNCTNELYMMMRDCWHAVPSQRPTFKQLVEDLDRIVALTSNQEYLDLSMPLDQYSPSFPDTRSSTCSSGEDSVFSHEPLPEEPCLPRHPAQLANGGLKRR
Sequence of FLT3 (ITD, F691L) (P36888 whole entry, looked up, stated change not applied): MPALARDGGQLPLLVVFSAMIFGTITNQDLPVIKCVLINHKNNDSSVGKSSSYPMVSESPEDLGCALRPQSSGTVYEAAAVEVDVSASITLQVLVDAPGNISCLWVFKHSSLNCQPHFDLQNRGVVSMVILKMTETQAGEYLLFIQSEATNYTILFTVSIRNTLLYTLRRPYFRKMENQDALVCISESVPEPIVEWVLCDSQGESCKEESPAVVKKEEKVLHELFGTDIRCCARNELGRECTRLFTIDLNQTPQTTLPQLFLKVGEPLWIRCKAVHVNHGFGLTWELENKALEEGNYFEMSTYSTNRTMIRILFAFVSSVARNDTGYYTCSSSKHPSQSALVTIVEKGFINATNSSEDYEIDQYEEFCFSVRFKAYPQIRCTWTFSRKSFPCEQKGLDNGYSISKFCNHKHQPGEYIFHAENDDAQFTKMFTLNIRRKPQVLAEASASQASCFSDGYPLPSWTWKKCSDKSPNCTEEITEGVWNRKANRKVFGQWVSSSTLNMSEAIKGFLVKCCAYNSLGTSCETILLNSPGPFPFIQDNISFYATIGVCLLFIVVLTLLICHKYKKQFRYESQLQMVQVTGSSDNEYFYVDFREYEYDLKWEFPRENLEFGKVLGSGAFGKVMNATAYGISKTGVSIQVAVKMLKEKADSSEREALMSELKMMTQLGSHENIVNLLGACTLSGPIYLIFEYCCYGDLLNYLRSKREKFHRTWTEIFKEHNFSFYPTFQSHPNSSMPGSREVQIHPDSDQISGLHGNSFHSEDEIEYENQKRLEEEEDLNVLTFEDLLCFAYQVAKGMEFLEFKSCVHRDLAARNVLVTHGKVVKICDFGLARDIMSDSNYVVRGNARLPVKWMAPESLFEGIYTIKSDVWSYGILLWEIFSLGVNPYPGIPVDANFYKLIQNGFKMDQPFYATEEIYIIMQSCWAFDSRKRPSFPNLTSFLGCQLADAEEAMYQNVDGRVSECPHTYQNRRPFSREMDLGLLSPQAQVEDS
Sequence of FLT3 (ITD) (P36888 whole entry, looked up, change not shown): as the sequence (P36888 whole entry, looked up, stated change not applied) above
Sequence of c-Src (P12931 whole entry, looked up): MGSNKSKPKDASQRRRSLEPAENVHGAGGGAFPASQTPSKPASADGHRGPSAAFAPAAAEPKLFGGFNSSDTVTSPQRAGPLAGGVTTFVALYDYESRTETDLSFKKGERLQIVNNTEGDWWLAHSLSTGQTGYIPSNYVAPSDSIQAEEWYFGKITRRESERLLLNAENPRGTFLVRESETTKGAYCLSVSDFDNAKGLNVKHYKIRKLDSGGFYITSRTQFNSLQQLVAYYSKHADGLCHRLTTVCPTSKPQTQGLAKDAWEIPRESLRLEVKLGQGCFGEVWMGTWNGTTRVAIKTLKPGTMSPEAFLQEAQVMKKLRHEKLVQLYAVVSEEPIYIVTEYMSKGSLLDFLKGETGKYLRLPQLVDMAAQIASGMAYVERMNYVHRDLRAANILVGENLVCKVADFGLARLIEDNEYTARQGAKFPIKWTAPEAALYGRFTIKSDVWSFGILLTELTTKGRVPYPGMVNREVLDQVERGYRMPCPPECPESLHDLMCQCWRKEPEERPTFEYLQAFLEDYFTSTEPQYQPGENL
Sequence of FLT3 (P36888 27-993): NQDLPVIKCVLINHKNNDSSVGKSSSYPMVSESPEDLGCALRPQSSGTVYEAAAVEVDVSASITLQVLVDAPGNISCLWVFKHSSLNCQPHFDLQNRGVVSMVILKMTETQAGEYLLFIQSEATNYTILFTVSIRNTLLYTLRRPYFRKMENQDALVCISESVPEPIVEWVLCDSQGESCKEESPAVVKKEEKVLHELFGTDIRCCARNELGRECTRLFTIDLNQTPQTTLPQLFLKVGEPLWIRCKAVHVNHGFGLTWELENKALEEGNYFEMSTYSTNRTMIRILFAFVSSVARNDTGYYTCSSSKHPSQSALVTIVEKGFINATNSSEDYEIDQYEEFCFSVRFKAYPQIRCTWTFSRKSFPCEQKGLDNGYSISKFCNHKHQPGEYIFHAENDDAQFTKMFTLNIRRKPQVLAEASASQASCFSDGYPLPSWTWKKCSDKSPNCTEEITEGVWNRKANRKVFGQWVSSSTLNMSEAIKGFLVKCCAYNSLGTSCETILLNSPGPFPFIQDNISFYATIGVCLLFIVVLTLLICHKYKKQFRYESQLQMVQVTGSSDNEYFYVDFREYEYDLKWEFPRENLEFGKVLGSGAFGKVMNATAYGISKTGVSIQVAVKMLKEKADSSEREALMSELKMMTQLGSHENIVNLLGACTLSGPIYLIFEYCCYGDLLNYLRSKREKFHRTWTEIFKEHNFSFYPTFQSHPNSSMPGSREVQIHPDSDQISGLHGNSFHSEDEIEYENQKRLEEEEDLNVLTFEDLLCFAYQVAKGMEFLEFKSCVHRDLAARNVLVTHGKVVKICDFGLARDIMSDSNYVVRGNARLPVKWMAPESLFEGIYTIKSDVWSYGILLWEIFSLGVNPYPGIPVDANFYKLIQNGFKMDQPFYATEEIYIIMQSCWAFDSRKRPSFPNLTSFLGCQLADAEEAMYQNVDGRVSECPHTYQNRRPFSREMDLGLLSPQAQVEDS
Sequence of TRKC (Q16288 32-839): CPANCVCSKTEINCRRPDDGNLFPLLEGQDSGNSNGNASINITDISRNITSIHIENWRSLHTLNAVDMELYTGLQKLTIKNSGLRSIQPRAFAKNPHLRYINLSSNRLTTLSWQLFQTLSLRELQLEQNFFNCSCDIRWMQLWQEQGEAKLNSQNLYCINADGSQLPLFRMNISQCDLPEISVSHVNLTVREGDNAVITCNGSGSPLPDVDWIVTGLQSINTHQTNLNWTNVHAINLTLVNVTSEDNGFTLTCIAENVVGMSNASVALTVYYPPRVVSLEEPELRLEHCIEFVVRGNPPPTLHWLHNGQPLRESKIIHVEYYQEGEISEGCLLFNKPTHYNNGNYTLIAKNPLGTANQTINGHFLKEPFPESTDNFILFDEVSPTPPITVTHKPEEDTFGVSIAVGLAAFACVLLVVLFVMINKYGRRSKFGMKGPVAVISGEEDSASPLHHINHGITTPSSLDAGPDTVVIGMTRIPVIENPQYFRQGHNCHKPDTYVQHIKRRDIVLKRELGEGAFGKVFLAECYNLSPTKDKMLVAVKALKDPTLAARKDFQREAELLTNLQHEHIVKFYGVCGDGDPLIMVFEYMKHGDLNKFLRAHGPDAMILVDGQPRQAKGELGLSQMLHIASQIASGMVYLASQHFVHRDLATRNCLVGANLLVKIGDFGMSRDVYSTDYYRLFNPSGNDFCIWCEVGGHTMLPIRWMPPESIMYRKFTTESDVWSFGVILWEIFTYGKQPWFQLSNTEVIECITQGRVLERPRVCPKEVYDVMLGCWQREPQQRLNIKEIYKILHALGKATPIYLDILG

SMILES | inhibition at 0.5 µM (FGFR1) | inhibition at 0.5 µM (FLT3) | inhibition at 0.5 µM (c-Src) | inhibition at 0.5 µM (c-kit) | IC50 (K562; [6]) | IC50 (K562; [7]) | IC50 (MV4-11 [1]) | IC50 (MOLM14 [2]) | IC50 (MV4-11 [3]) | IC50 (NCI H1703 (NSCLC)) | Kd (FLT3 (ITD)) | Kd (FLT3 (ITD, F691L)) | other results
Cc1ccc(C(=O)NCCN2CCCCC2)cc1C#Cc1c(N)ncc2ccc(Cl)cc12 [HSN248] | 9% | 73% | 23% | 93% | 7 nM | 7 ± 0.1 nM | 225 nM | 180 ± 7.8 nM | 181 ± 6.5 nM |  |  |  | inhibition at 0.5 µM (RET): 52%; inhibition at 0.5 µM (TRKC): 83%; inhibition at 1 µM (MV-4-11): 98%; inhibition at 1 µM (HCT116): 76%; inhibition at 1 µM (HeLa): 100%; inhibition at 1 µM (MCF-7): 100%; proliferation inhibition in words, MV4-11 / AML (MV4-11 [3]): only moderate inhibitors
Cc1ccc(C(=O)Nc2ccc(CN3CCN(C)CC3)c(C(F)(F)F)c2)cc1C#Cc1c(N)ncc2c(Cl)cccc12 [HSN353, 3-((3-amino-8-chloroisoquinolin-4-yl)ethynyl)-4-methyl-N-(4-((4-methylpiperazin-1-yl)methyl)-3-(trifluoromethyl)phenyl)benzamide] | 93% | 94% | 98% | 82% | 5 nM | 5.2 ± 0.02 nM | 3 nM | 1.97 ± 0.1 nM | 3.45 ± 0.04 nM |  |  |  | 
Cc1ccc2cnc(N)c(C#Cc3cc(C(=O)Nc4ccc(CN5CCN(C)CC5)c(C(F)(F)F)c4)ccc3C)c2c1 [HSN379, 3-((3-amino-6-methylisoquinolin-4-yl)ethynyl)-4-methyl-N-(4-((4-methylpiperazin-1-yl)methyl)-3-(trifluoromethyl)phenyl)benzamide] |  |  |  |  |  |  |  |  |  | 13 nM |  |  | 
Cc1ncc(C(=O)Nc2ccc(CN3CCN(C)CC3)c(C(F)(F)F)c2)cc1C#Cc1cnc(N)c2ncccc12 [HSN459, 5-((8-amino-1,7-naphthyridin-5-yl)ethynyl)-6-methyl-N-(4-((4-methylpiperazin-1-yl)methyl)-3-(trifluoromethyl)phenyl)nicotinamide] |  |  |  |  |  |  |  |  |  | 38 nM | 5.6 nM | 17 nM | 
Cc1ncc(C(=O)Nc2ccc(CN3CCN(C)CC3)c(C(F)(F)F)c2)cc1C#Cc1cnc(N)c2ccccc12 [HSN461, 5-((1-aminoisoquinolin-4-yl)ethynyl)-6-methyl-N-(4-((4-methylpiperazin-1-yl)methyl)-3-(trifluoromethyl)phenyl)nicotinamide] |  |  |  |  |  |  |  |  | < 1 nM | 157 nM | 7.9 nM | 91 nM | 
N=C(N)c1ccc(/N=N/c2c(N)ncc3ccc(Br)cc23)cc1 [HSW630-1] |  |  |  | 68% |  |  |  |  |  |  |  |  | IC50 (MV4-11 [4]): 0.15 ± 0.01 µM; IC50 (K-562): 3 µM; IC50 (MOLM14 [5]): 0.15 ± 0.01 µM; IC50 (THP-1): 1.2 µM
